Measured values from the CheMixHub viscosity set.

Experiment: xn = mol fraction of the nth substance listed

CC(C)[C@H](N)C(=O)[O-].[Na+] + O
viscosity [mPa·s], 101 kPa
Conditions | x1 = 0.004484 | x1 = 0.008927 | x1 = 0.01333 | x1 = 0.0177 | x1 = 0.02202 | x1 = 0.02631
293.15 K | 1.165 | 1.356 | 1.571 | 1.816 | 2.087 | 2.385
303.15 K | 0.919 | 1.057 | 1.214 | 1.382 | 1.573 | 1.786
313.15 K | 0.747 | 0.85 | 0.969 | 1.094 | 1.233 | 1.387
323.15 K | 0.621 | 0.702 | 0.793 | 0.889 | 0.994 | 1.11

CCOC(C)=O + O
298.15 K, 101 kPa
Conditions | viscosity [mPa·s]
x1 = 0.00139 | 0.9095
x1 = 0.001837 | 0.9129
x1 = 0.003766 | 0.9354
x1 = 0.006372 | 0.9652
x1 = 0.006895 | 0.9678
x1 = 0.01022 | 1.004
x1 = 0.01327 | 1.036
x1 = 0.8902 | 0.4495
x1 = 0.9238 | 0.4395
x1 = 0.9579 | 0.4312

Cc1c[nH]c(=O)[nH]c1=O + O
viscosity [mPa·s], 101.3 kPa
Conditions | 293.15 K | 298.15 K | 303.15 K | 308.15 K | 313.15 K | 318.15 K
x1 = 0.000119 | 1.006 | 0.895 | 0.803 | 0.738 | 0.623 | 0.595
x1 = 0.000164 | – | 0.893 | – | 0.722 | – | 0.598
x1 = 0.0001877 | 1.008 | 0.897 | 0.805 | 0.74 | 0.625 | 0.597
x1 = 0.000266 | – | 0.895 | – | 0.723 | – | 0.6
x1 = 0.0003006 | 1.01 | 0.899 | 0.807 | 0.742 | 0.627 | 0.599
x1 = 0.0003339 | – | 0.896 | – | 0.724 | – | 0.6
x1 = 0.0003713 | – | 0.896 | – | 0.724 | – | 0.601
x1 = 0.0003733 | 1.012 | 0.901 | 0.809 | 0.744 | 0.629 | 0.601
x1 = 0.0004194 | – | 0.897 | – | 0.725 | – | 0.601
x1 = 0.0004572 | 1.014 | 0.903 | 0.811 | 0.746 | 0.631 | 0.603
x1 = 0.0004811 | – | 0.898 | – | 0.726 | – | 0.602
x1 = 0.0005454 | 1.016 | 0.905 | 0.813 | 0.748 | 0.633 | 0.605

Nc1cc[nH]c(=O)n1 + O
viscosity [mPa·s], 101.3 kPa
Conditions | x1 = 0.000131 | x1 = 0.0001895 | x1 = 0.0002822 | x1 = 0.000457 | x1 = 0.0004889 | x1 = 0.0005591
298.15 K | 0.892 | 0.893 | 0.894 | 0.895 | 0.896 | 0.897
308.15 K | 0.721 | 0.722 | 0.722 | 0.724 | 0.724 | 0.725
318.15 K | 0.598 | 0.598 | 0.599 | 0.601 | 0.601 | 0.602

O=C([O-])CC(O)(CC(=O)O)C(=O)O.[K+] + O
viscosity [mPa·s], 101 kPa
Conditions | 293.15 K | 298.15 K | 303.15 K | 308.15 K
x1 = 0.0032 | 1.074 | 0.954 | 0.853 | 0.766
x1 = 0.0089 | 1.237 | 1.089 | 0.97 | 0.876
x1 = 0.0177 | 1.419 | 1.253 | 1.117 | 1.002

[O-][Cl+3]([O-])([O-])O[Cl+3]([O-])([O-])[O-] + O
293.15 K, 101.33 kPa
Conditions | viscosity [mPa·s]
x1 = 0.428 | 1.179
x1 = 0.46 | 0.949
x1 = 0.474 | 0.893
x1 = 0.491 | 0.821
x1 = 0.499 | 0.796
x1 = 0.51 | 0.762
x1 = 0.519 | 0.754
x1 = 0.602 | 0.726
x1 = 0.711 | 0.714
x1 = 0.787 | 0.713
x1 = 0.818 | 0.709
x1 = 0.906 | 0.708
